Results: BindingDB's records for patent US11518779 (Victoria Link, 2022)

Molecular target: DNA (cytosine-5)-methyltransferase 1 (Homo sapiens, UniProt P26358)
Test: DNMT1 Inhibition Assay
Protocol: The DNMT1 assays were carried to determine the IC50 with transition state analogs. The reaction (100 μL) containing 50 mM Tris-HCl pH 8.0, 100 mM KCl, 50 ug/mL BSA, 2 mM DTT, 1 μM freshly prepared [Me-3H]-SAM, 1 μM 26 bp hemimethylated DNA substrate and varying concentrations of each inhibitor ([…]), incubated at 37° C. with 100 nM DNMT1. The reaction fractions (50 μL) were taken at 2 hours. The methylated DNA was purified by using Micro Bio-spin P-30 columns (Bio-Rad). Purified samples were mixed with 10 mL of scintillation liquid (PerkinElmer), and counted for radioactivity in a Tricarb 2910 TR scintillation counter (PerkinElmer). The values obtained in the absence of DNMT1 in the reaction were used as controls. The assay data were analyzed using GraphPad Prism for IC50 calculations.

Chain of DNA (cytosine-5)-methyltransferase 1 (P26358 whole entry): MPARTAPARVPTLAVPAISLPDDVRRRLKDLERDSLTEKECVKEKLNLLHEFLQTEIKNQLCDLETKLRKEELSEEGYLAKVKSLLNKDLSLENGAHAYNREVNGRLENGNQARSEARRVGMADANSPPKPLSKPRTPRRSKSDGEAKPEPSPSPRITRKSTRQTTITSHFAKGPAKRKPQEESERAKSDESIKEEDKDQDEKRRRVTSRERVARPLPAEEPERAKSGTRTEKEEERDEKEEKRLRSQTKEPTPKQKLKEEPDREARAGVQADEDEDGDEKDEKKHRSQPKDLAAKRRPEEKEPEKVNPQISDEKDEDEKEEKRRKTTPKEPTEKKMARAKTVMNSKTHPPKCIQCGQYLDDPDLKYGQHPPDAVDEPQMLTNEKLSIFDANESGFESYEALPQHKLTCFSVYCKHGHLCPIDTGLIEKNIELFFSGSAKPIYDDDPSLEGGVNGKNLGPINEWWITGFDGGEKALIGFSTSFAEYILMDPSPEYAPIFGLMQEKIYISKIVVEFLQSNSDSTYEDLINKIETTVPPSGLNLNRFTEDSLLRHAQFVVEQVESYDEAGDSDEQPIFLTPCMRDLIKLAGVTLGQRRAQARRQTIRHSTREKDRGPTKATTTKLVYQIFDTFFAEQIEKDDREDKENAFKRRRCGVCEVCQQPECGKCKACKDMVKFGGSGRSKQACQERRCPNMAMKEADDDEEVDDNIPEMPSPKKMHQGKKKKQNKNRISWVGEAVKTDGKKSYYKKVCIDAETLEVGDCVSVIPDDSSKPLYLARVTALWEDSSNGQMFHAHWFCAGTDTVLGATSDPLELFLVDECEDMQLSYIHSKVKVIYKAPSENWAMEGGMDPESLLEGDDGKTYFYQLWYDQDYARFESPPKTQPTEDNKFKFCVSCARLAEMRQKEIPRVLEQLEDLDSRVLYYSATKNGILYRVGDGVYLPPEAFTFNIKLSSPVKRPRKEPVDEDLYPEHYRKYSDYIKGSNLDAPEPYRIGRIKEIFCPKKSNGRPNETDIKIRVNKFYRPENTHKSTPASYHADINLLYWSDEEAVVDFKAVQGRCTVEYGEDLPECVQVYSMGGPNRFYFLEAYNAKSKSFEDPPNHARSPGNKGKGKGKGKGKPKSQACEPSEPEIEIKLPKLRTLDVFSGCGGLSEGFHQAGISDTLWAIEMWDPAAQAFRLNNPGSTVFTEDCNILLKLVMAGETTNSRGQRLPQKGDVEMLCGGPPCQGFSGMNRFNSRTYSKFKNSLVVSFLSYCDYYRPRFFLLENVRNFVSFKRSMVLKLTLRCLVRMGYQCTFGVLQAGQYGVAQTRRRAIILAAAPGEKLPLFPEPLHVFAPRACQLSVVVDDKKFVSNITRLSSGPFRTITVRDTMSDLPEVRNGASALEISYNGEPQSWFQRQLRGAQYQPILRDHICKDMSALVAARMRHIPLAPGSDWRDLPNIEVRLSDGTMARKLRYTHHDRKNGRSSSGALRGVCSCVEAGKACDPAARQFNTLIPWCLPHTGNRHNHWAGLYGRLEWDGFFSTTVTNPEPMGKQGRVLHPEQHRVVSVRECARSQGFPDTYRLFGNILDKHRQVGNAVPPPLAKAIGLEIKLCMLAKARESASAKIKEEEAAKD

Row | SMILES | IC50 [nM]
1 | Nc1nc(=O)n([C@H]2C[C@H](O)[C@@H](CO)O2)cc1CSCCC[C@H]1O[C@@H](n2cnc3c(N)ncnc32)[C@H](O)[C@@H]1O [US11518779, Compound 21] | 3600
2 | Nc1nc(=O)n([C@H]2C[C@H](O)[C@@H](CO)O2)cc1CNC[C@H]1O[C@@H](n2cnc3c(N)ncnc32)[C@H](O)[C@@H]1O [US11518779, Compound 10] | 1100
